The test system of assay [1] is pressor response to Angiotensin I (AI). Briefly: Inhibition of the pressor response to angiotensin I after i.v. administration, area under the AI inhibition response vs. time curve. It counts as in vivo. More on the design: unit not given beside the values. The settings on record: test compound 50 μg/Kg i.v.; AI 300 ng/Kg into femoral vein; 0 to 360 min. How it is done:
**Angiotensin I (AI, 300 ng/Kg) were injected into the femoral vein at
intervals of 10 min until the constant pressor response to AI was
180, 300 and 360 min after i.v. administration of the test compound (50
μg/Kg), and AVC (area under the curve) was calculated by the AI
inhibition response vs. time curves for 0 to 360 min.

A further assay concerns the target T1, rabbit lung ACE (Oryctolagus cuniculus, UniProt P12822).
T1 construct: activity of rabbit lung ACE; from tissue; host or cells: rabbit lung
T1 sequence (P12822 34-1310): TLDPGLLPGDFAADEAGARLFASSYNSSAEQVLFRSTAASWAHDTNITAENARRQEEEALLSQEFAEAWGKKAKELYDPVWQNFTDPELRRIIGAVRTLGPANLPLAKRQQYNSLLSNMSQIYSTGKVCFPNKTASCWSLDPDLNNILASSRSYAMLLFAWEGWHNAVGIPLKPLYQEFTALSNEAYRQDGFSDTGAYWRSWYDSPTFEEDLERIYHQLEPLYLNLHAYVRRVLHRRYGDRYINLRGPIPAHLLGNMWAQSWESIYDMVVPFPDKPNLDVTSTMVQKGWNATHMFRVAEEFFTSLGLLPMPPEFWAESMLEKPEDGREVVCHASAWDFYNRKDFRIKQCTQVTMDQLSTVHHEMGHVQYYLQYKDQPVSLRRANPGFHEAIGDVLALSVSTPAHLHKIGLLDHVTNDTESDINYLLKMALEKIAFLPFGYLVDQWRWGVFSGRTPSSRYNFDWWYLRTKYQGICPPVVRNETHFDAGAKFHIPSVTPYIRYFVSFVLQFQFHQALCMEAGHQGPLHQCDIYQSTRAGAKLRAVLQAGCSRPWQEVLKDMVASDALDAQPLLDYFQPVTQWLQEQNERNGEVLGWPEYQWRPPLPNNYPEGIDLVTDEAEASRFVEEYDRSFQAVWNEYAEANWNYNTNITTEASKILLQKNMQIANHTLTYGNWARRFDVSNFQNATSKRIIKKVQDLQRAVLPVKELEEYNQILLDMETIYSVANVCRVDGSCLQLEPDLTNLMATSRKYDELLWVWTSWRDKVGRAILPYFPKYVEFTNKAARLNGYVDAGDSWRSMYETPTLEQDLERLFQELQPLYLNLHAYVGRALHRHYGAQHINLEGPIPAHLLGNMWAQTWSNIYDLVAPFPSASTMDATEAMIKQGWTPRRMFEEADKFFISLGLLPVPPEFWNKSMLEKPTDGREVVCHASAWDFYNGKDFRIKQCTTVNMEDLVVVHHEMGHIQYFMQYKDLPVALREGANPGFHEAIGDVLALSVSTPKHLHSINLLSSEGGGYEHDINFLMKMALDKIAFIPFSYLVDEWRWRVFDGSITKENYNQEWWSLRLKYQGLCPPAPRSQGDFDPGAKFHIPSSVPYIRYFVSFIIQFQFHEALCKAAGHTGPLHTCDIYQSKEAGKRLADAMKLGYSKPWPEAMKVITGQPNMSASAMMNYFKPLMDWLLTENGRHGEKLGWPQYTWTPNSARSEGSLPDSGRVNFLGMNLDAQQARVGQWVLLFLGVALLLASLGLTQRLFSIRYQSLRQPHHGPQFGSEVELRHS
Briefly: Inhibition of rabbit lung ACE by the method of Friedland and Silverstein. It counts as biochemical. The settings on record: read-out: IC50 (concentration inhibiting 50% of the activity of rabbit lung ACE). How it is done: The evaluation of converting enzyme inhibitors is introduced from the analysis of enzyme inhibition in a test tube. One example of inhibition activity of the compounds of the present invention calculated from the method of Friedland & Silverstein [Am. J. Clin. Pathol.
*Concentration inhibiting 50% of the activity of rabbit lung ACE was
determined by the method of Friedland and Silverstein.

In the case of `C[C@H](N[C@@H](CCCCCCCN)C(=O)O)C(=O)N1CCC[C@H]1C(=O)O` [Compound 1, N-[1(S)-carboxy-8-aminooctyl]-L-alanyl-L-proline], in assay [1], the “(iv) AUC (area under the AI inhibition response vs. time curve)” value was found to be 509. For the same compound, the IC50 at rabbit lung ACE is 0.75 nM.

Turning to `C[C@H](N[C@@H](CCCCC1CCNCC1)C(=O)O)C(=O)N1CCC[C@H]1C(=O)O` [Compound 2, N-[1(S)-carboxy-5-(4-piperidyl)pentyl]-L-alanyl-L-proline], the “(iv) AUC (area under the AI inhibition response vs. time curve)” value in assay [1] amounted to 429. In addition, on rabbit lung ACE, the IC50 was 1 nM.

Regarding `C[C@H](N[C@@H](CCCCCC1CCNCC1)C(=O)O)C(=O)N1CCC[C@H]1C(=O)O` [Compound 3, N-[1(S)-carboxy-6-(4-piperidyl)hexyl]-L-alanyl-L-proline], the “(iv) AUC (area under the AI inhibition response vs. time curve)” value in assay [1] worked out at 424. Further, the IC50 at rabbit lung ACE amounted to 1.1 nM.

For the compound `NCCCCCCC[C@H](N[C@@H](CCCCN)C(=O)N1CCC[C@H]1C(=O)O)C(=O)O` [Compound 4, N^α -[1(S)-carboxy-8-aminooctyl]-L-lysyl-L-proline], the “(iv) AUC (area under the AI inhibition response vs. time curve)” value in assay [1] was 431. Further, the IC50 at rabbit lung ACE is 0.7 nM.

Turning to `NCCCC[C@H](N[C@@H](CCCCC1CCNCC1)C(=O)O)C(=O)N1CCC[C@H]1C(=O)O` [Compound 5, N^α -[1(S)-carboxy-5-(4-piperidyl)pentyl]-L-lysyl-L-proline], the “(iv) AUC (area under the AI inhibition response vs. time curve)” value in assay [1] was determined as 460. The IC50 on rabbit lung ACE came out at 1 nM.

Take `NCCCC[C@H](N[C@@H](CCCCCC1CCNCC1)C(=O)O)C(=O)N1CCC[C@H]1C(=O)O` [Compound 9, N^α -[1(S)-carboxy-6-(4-piperidyl)hexyl]-L-lysyl-L-proline]: on rabbit lung ACE, the IC50 came out at 1 nM.

Consider `C[C@H](N[C@@H](CCCCCC1CCNCC1)C(=O)O)C(=O)N1[C@H](C(=O)O)C[C@@H]2CCCC[C@@H]21` [Compound 10, 1-[N-[1(S)-carboxy-6-(4-piperidyl)hexyl]-L-alanyl]-(2α,3aβ,7aβ)-octahydro-1H-indole-2(S)-carboxylic acid], for which the IC50 at rabbit lung ACE is 0.9 nM.

On to `C[C@H](N[C@@H](CCCCC1CCNCC1)C(=O)O)C(=O)N1[C@H](C(=O)O)C[C@@H]2CCCC[C@@H]21` [Compound 11, 1-[N-[1(S)-carboxy-5-(4-piperidyl)pentyl]-L-alanyl]-(2α,3aβ,7aβ)-octahydro-1H-indole-2(S)-carboxylic acid], for which, at rabbit lung ACE, the IC50 was 0.62 nM.

`CC(NC(CCCCCCN)C(=O)O)C(=O)N1CCCC1C(=O)O` (stereo not drawn) [Compound 12, reference compound]: the “(iv) AUC (area under the AI inhibition response vs. time curve)” value in assay [1] is listed as 368. Besides, the IC50 on rabbit lung ACE is 1.4 nM.

(Values after patent US4897483A, “Amino acid derivatives as antihypertensives” (Asahi Breweries Ltd., priority 1987, dated 1990).)
